This note sets out measurements from ChEMBL document CHEMBL1127010, “Synthesis of 3-acetoxy-12-epoxy-25-hydroxy-cholesta-5,7-diene and 2-25-dihydroxyvitamin D3” (1993).

This test concerns HL-60. The test can be described thus: Concentration required for induction of HL-60 cell differentiation (ATCC cells) to 50% was determined. The test is classed as functional, Homo sapiens.

One may read the EC50 as the concentration needed to bring the measured effect to its halfway point. A low value points to a more potent agent. In the case of `C=C1C[C@H](O)[C@H](O)C/C1=C/C=C1\CCCC2(C)C1CCC2[C@H](C)CCCC(C)(C)O` (stereo partly specified), the EC50 worked out at 600 nM.
